Marks after values point to notes of the source that are not given here.

Data set [1] concerns OATP2B1. Nature of the data set: in vitro. Particulars: human.
Description: (§1) After the transduction, cell lines were tested by flow cytometry and were sorted based on transporter expression/function, and in the case of the OATP2B1-expressing cell line, on CD4 protein expression. Parental, SLCO2B1, ABCG2 and ABCB1 overexpressing cell lines were transduced with the fluorescent protein expressing lentiviral supernatants produced with pRRL-EF1-mCherry, -mOrange or -eGFP expression plasmid in a second round of transduction. Mes-Sa/Dx5-eGFP cells were repeatedly cultured in 500 nM doxorubicin to ensure homogenous expression of Pgp. […] Functional expression of ABCB1 and ABCG2 was regularly checked with cytotoxicity assays using mitoxantrone in the absence or presence of tariquidar.
(§2) All experiments were performed using a robotic pipetting workstation (Hamilton Robotics STAR Let). Cells were seeded at a final cell density of 1875 cells per well in 384-well plates in the triple co-culture (625 cells from each lines) and at 2500 cells per well in the A431 control and A431-2B1 co-culture (1250 cells from both) systems. Co-cultured cells were incubated for 24 h at 37 °C and 5% CO2 under humidified atmosphere prior to the addition of drugs. […] Data were exported to a custom-made program for determining growth inhibition curves for each cell line.
(§3) In the primary screening, IC50 was estimated by the intercept of the linear regression fitted on nearest values. In the confirmatory screening, IC50 values were obtained by sigmoidal curve fitting using the GraphPad Prism software. […] The Resistance Ratio (RR) was calculated by dividing the IC50 values measured against the multidrug resistant, transporter-expressing derivative by the cytotoxicity measured in the parental cell line; the Selectivity Ratio (SR) is the inverse of RR.
Data set [2] has as its target T1, OATP2B1 (Homo sapiens, UniProt O94956).
T1 sequence (O94956 1-709): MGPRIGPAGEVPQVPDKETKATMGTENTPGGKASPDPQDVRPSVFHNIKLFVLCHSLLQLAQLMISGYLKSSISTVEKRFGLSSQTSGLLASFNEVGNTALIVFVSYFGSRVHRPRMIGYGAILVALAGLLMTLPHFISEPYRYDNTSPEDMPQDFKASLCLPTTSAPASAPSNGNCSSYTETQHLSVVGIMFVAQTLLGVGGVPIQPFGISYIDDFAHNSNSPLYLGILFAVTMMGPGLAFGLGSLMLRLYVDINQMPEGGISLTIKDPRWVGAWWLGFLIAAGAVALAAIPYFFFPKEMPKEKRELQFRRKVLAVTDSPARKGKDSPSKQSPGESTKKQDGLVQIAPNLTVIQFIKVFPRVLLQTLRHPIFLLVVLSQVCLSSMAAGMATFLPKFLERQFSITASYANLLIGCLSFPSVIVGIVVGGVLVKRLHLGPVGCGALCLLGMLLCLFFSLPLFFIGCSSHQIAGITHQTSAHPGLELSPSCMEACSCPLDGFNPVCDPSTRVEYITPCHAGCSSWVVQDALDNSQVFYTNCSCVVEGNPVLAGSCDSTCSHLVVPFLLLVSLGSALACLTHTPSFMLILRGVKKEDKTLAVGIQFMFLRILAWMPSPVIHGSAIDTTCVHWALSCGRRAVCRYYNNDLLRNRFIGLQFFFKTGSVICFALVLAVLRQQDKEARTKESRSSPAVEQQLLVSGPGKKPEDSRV
The data set is described as follows: Inhibition of OATP2B1-mediated Cascade Blue uptake (microplate-based uptake assay, A431-2B1 cells).
Description: OATP-expressing A431 cells were seeded (7 × 10^4 cells in 200 µl final volume/well) onto 96-well plates and cultured for 16–24 h at 37 °C, 5% CO2. After reaching confluence, the supernatant was removed and the cells were washed three-times with 200 µl of phosphate-buffered saline (PBS). The cells were preincubated in the presence of the compounds for 5 min at 37 °C. The amount of solvent was kept below 0.5% throughout the study to avoid interference with the fluorescence of the dyes. The reaction was started with the addition of 50 µl Cascade Blue fluorescent dye (10 µM final concentration in a final volume of 100 µl) and the plate was incubated at 37 °C for 30 min (Patik et al. [2018]). The reaction was stopped by the addition of 200 µl ice-cold PBS. The supernatant was rapidly removed, and the cells were washed three-times with 200 µl ice-cold PBS. Finally, 200 µl PBS was added to the cells and fluorescence was measured at room temperature using an EnSpire fluorescent plate reader (Perkin Elmer) at wavelengths 401ex/419em nm.

Data set [3] has as its system A431-2B1 cells (OATP2B1 expressing). Nature of the data set: Fluorescence-based cytotoxicity assay, OATP2B1-expressing A431-2B1 mCh.
Description: as §1, §2, §3
A further data set relates to A431 cells. Nature of the data set: Fluorescence-based cytotoxicity assay, parental A431 eGFP. Particulars: Homo sapiens, A-431, read-out: IC50 (µM) A431 eGFP, co-culture.
The subject of the next data set is Mes-Sa/Dx5 cells. The data set is described as follows: Fluorescence-based cytotoxicity assay, Mes-Sa/Dx5 eGFP.

Description for A431 cells: as §1, §2, §3
Description for Mes-Sa/Dx5 cells: as §1, §2, §3

For the compound `S=P(N1CC1)(N1CC1)N1CC1` [NSC-6396, Thioplex], the IC50 is 18.7 µM in the data set with OATP2B1 [1], 574 ± 283 µM on OATP2B1 [2] and 57.6 µM with A431 cells. In addition, in data set [3], the “SR (A431-2B1 vs parental A431), screening of DTP Oncology Set IV” value was 3.48. The “SR, co-culture” value in data set [3] is 3.08^*. Also, in the data set on Mes-Sa/Dx5 cells, the “SR (Mes-Sa/DX5)” value is 12.56.

Source of the values: paper PMC6510822, “Identification of anticancer OATP2B1 substrates by an in vitro triple-fluorescence-based cytotoxicity screen” (Archives of Toxicology, 2019).
